Consider 2 molecules from patent publication US10077436B2, “Beta-glucosidase enzymes for increased biomass saccharification” (Edeniq, Inc., priority 2013, dated 2018).

Data set [1] has as its system A-BG (Accellerase® BG from DuPont), commercial beta-glucosidase. The data set is described as follows: BG kinetics, cellobiose hydrolysis assay (HPLC) with glucose as competitive inhibitor, A-BG. The class given is biochemical. The following applies: cellobiose substrate, pH 4.8, 50° C. An excerpt: The kinetic properties of beta glucosidase are important for cellulosic hydrolysis, since in commercial situations a wide range of substrate concentrations and different product inhibition conditions will be encountered. In this example, a Michaelis-Menten kinetics model was used to describe BG kinetics.
(§1) BG activity assay using cellobiose is the other standard assay to measure BG or cellobiase activity, which utilizes hydrolysis of cellobiose by cellobiase into two molecules of glucose, the last step of enzymatic hydrolysis of cellulose. One cellobiase unit (commonly termed as CBU) is defined as the amount of enzyme that converts […] of cellobiose or produces 2 μmol of glucose per min. Briefly, to determine BG activity, 25 μL of diluted enzyme in 50 mM citrate buffer (pH 4.8) equilibrated to 50° C. was mixed with 25 μL cellobiose (or cellobiose/glucose mixture for the kinetic study) to start the reaction. The mixture was incubated at 50° C. for 10 min, and the reaction was terminated by incubating the mixture at 99° C. for 5 min. Different methods are available to measure the glucose produced in the assays. For the kinetic study, HPLC was used.
To determine kinetic properties using cellobiose substrate, duplicate assays with cellobiose concentrations ranging from 0.47 to 15 mM and glucose concentrations of 0, 0.9, 4.5, 6.75, and 8.1 (for A-BG) or 9 (for all the other three BGs) g/L were performed. As for pNPG substrate, the range of cellobiose substrate concentration was chosen to show detectable activity at the lowest substrate concentration and saturation stage at high substrate concentration. […] Moreover, theoretically there are two ways to measure BG activity by HPLC when cellobiose is used as the substrate: tracking consumption of cellobiose or tracking production of glucose. […] In Table 3, A % is defined as follows and is an indicator of measurement sensitivity, since the difference of substrate or product concentrations before and after reaction was used to determine BG activity. Δ%=(start conc. of cellobiose−end conc. of cellobiose)/start conc. of cellobiose×100% (3) Δ%=(end conc. of glucose−start conc. of glucose)/start conc. of glucose×100% (4)
A similar simultaneous nonlinear regression method based on the competitive inhibition equation expressed in Equation (1) was used to determine kinetic parameters of BG towards cellobiose.
The specific activity used here was determined by the initial velocity approach that is required by implementing Michaelis-Menten model (Copeland, 2000). The specific activity was determined by measuring consumption of cellobiose in the first 10 min of reaction and was expressed as μmol min^−1 mg^−1, where mg^−1 means per mg of total protein. The relative activity was determined based on the maximum activity obtained in the absence of initial glucose inhibition.
The above experimental data were fit in the competitive inhibition model as expressed in Equation (1) by simultaneous nonlinear regression.

Data set [2] concerns S-BG (Novozymes SP188 from Sigma), commercial beta-glucosidase. Kind of data set: BG kinetics, cellobiose hydrolysis assay (HPLC) with glucose as competitive inhibitor, S-BG. The following applies: cellobiose substrate, pH 4.8, 50° C. In kind it is biochemical.
Description: (§2) The kinetic properties of beta glucosidase are important for cellulosic hydrolysis, since in commercial situations a wide range of substrate concentrations and different product inhibition conditions will be encountered. In this example, a Michaelis-Menten kinetics model was used to describe BG kinetics. To determine these kinetic properties, BG activity assays using standard substrates pNPG and cellobiose were employed. yEdQ745-BG (wild type) and yEdQ885-BG (improved), were compared with two commercial BGs, A-BG (Accellerase®) BG from Dupont) and S-BG (Novozymes SP188 from Sigma).
as §1
To determine kinetic properties using cellobiose substrate, duplicate assays with cellobiose concentrations ranging from 0.47 to 15 mM and glucose concentrations of 0, 0.9, 4.5, 6.75, and 8.1 (for A-BG) or 9 (for all the other three BGs) g/L were performed. As for pNPG substrate, the range of cellobiose substrate concentration was chosen to show detectable activity at the lowest substrate concentration and saturation stage at high substrate concentration. However, in contrast to the pNPG substrate, when there was still some activity left at glucose concentration up to 36 g/L, most of the BG activity was lost at an inhibitor level of 9 g/L when cellobiose substrate was used. […] It should also be noted that colorimetric glucose assay cannot provide activity results for inhibitory glucose levels above 0.9 g/L after several trials. Therefore, HPLC measurements were used for kinetic studies using cellobiose substrate. It should be pointed out that the HPLC method may not be sensitive enough either to capture BG activity under more severe glucose inhibition conditions than 9 g/L of glucose. Moreover, theoretically there are two ways to measure BG activity by HPLC when cellobiose is used as the substrate: tracking consumption of cellobiose or tracking production of glucose. However, as shown by the example of one set of results from S-BG in Table 3, tracking glucose is problematic due to measurement sensitivity. In Table 3, A % is defined as follows and is an indicator of measurement sensitivity, since the difference of substrate or product concentrations before and after reaction was used to determine BG activity. Δ%=(start conc. of cellobiose−end conc. of cellobiose)/start conc. of cellobiose×100% (3) Δ%=(end conc. of glucose−start conc. of glucose)/start conc. of glucose×100% (4)
With increasing inhibitor (glucose) level, Δ% is decreasing. For the case of tracking glucose, Δ% was too small to be reliable when 4.5 g/L of glucose was added at the beginning. […] Thus, the approach of tracking cellobiose was chosen due to its higher detection sensitivity. In the substrate range used to determine kinetic parameters (0.47 to 30 mM for A-BG and 0.47 to 15 mM for the other three BGs), the detection sensitivity is reasonable.
A similar simultaneous nonlinear regression method based on the competitive inhibition equation expressed in Equation (1) was used to determine kinetic parameters of BG towards cellobiose. […]

Substrate in data set [3]: O=[N+]([O-])c1ccc(O[C@@H]2O[C@H](CO)[C@@H](O)[C@H](O)[C@H]2O)cc1
Kind of data set: BG kinetics, pNPG hydrolysis assay with glucose as competitive inhibitor, yEdQ885-BG. The class given is biochemical, Aspergillus niger. The following applies: other: pNPG substrate, pH 5.0, 50° C.
Description: (§3) The beta-glucosidase (BG) gene from Aspergillus niger (Accession #CAB75696.1) was integrated into the TR3 yeast background at the T4U3 genomic site.
(§4) High resolution enzyme assays and kinetic testing comparing the beta-glucosidases described herein and commercial enzyme preparations were pursued to more clearly quantify differences in mutant BG enzymes compared to the wild type BG enzyme. Based on data presented herein, BG mutant YEdQ885 was selected for further analysis and compared to the BG activity present in commercial preparations of SP188 (Novozymes) and Accellerase® BG (DuPont) as well as wild type BG.
as §2
BG activity assay using pNPG is one of the two commonly used standard assays to measure BG activity, which utilizes hydrolysis of p-nitrophenyl-β-D-glucopyranoside (pNPG) by BG into a yellow colored product, p-nitrophenol (pNP), that has a strong absorbance at 405 nm. One pNPG unit is defined as the amount of enzyme that produces 1 μmol of pNP per min. Briefly, to determine BG activity, 25 μL of diluted enzyme in 200 mM sodium acetate buffer (pH 5.0) was mixed with 25 μL of the same buffer and 25 μL of RO water (or glucose solution for the kinetic study) and the mixture was preincubated at 50° C. for 5 min. The reaction was initiated by adding 25 μL of 10 mM pNPG in 200 mM sodium acetate buffer (pH 5.0) and the mixture was incubated at 50° C. for 10 min. The reaction was then terminated by adding 100 μL of 0.25 M sodium carbonate, and the amount of pNP produced was determined by measuring absorbance at 405 nm using a predetermined calibration curve. […]
To determine the kinetic properties, a competitive inhibition mechanism was hypothesized as proposed in the literature (Chauve et al, 2010; Krogh et al, 2010). […] The turnover number, Kcat, can be calculated by Equation (2), where [Et] is the total amount of enzyme.
Conventionally, linearization methods can be used to determine the kinetic parameters based on Equation (1). […] Thus, Vmax, Km and Ki can be determined simultaneously from this fitting process, and Km/Ki can then be calculated. Kcat can be obtained by Equation (2) and Kcat/Km can be calculated accordingly. […]

Substrate in data set [4]: OC[C@H]1O[C@@H](O[C@H]2[C@H](O)[C@@H](O)C(O)O[C@@H]2CO)[C@H](O)[C@@H](O)[C@@H]1O
Kind of data set: BG kinetics, cellobiose hydrolysis assay (HPLC) with glucose as competitive inhibitor, yEdQ885-BG. The class given is biochemical, Aspergillus niger. The following applies: other: cellobiose substrate, pH 4.8, 50° C.
Description: as §3, §4, §2, §1
To determine kinetic properties using cellobiose substrate, duplicate assays with cellobiose concentrations ranging from 0.47 to 15 mM and glucose concentrations of 0, 0.9, 4.5, 6.75, and 8.1 (for A-BG) or 9 (for all the other three BGs) g/L were performed. As for pNPG substrate, the range of cellobiose substrate concentration was chosen to show detectable activity at the lowest substrate concentration and saturation stage at high substrate concentration. However, in contrast to the pNPG substrate, when there was still some activity left at glucose concentration up to 36 g/L, most of the BG activity was lost at an inhibitor level of 9 g/L when cellobiose substrate was used. […]

As usually defined, the Km is the substrate concentration at which the rate is half of its maximum. On to `OC[C@H]1O[C@@H](O[C@H]2[C@H](O)[C@@H](O)C(O)O[C@@H]2CO)[C@H](O)[C@@H](O)[C@@H]1O` (stereo partly shown) [cellobiose], for which, in data set [1], the Kcat stood at 67.803 s⁻¹, the Kcat/Km worked out at 10336 M⁻¹ s⁻¹, the Km was 6560 ± 890 µM and the Vmax stood at 51.89 ± 2.53 units/mg. In data set [2], the Kcat amounted to 15.54 s⁻¹, the Kcat/Km came to 9773.7 M⁻¹ s⁻¹, the Michaelis constant (Km) worked out at 1590 ± 410 µM and the Vmax is given as 7.77 ± 0.56 units/mg.

B1: Aspergillus niger beta-glucosidase (CAB75696.1, SEQ ID NO:2) improved variant yEdQ885-BG (Aspergillus niger; Y363C/Y375F/Y610F) (protein)
chain: DELAYSPPYYPSPWANGQGDWAQAYQRAVDIVSQMTLDEKVNLTTGTGWELELCVGQTGGVPRLGVPGMCLQDSPLGVRDSDYNSAFPAGMNVAATWDKNLAYLRGKAMGQEFSDKGADIQLGPAAGPLGRSPDGGRNWEGFSPDPALSGVLFAETIKGIQDAGVVATAKHYIAYEQEHFRQAPEAQGFGFNISESGSANLDDKTMHELYLWPFADAIRAGAGAVMCSYNQINNSYGCQNSYTLNKLLKAELGFQGFVMSDWAAHHAGVSGALAGLDMSMPGDVDYDSGTSYWGTNLTISVLNGTVPQWRVDDMAVRIMAAYYKVGRDRLWTPPNFSSWTRDECGYKYYYVSEGPFEKVNQYVNVQRNHSELIRRIGADSTVLLKNDGALPLTGKERLVALIGEDAGSNPYGANGCSDRGCDNGTLAMGWGSGTANFPYLVTPEQAISNEVLKHKNGVFTATDNWAIDQIEALAKTASVSLVFVNADSGEGYINVDGNLGDRRNLTLWRNGDNVIKAAASNCNNTIVVIHSVGPVLVNEWYDNPNVTAILWGGLPGQESGNSLADVLYGRVNPGAKSPFTWGKTREAYQDFLVTEPNNGNGAPQEDFVEGVFIDYRGFDKRNETPIYEFGYGLSYTTFNYSNLEVQVLSAPAYEPASGETEAAPTFGEVGNASDYLYPSGLQRITKFIYPWLNGTDLEASSGDASYGQDSSDYLPEGATDGSAQPILPAGGGPGGNPRLYDELIRVSVTIKNTGKVAGDEVPQLYVSLGGPNEPKIVLRQFERITLQPSEETKWSTTLTRRDLANWNVEKQDWEITSYPKMVFVGSSSRKLPLRASLPTVH
notes: strain yEdQ885, BG acid/base mutant #8
The kcat is the maximal rate divided by the concentration of active sites. Broadly, the kcat/Km is the turnover number divided by the Michaelis constant. B1: in data set [3], the Km was determined as 640 ± 30 µM, the Vmax was 6.33 µmol/min/mg, the turnover number (kcat) was determined as 12.7 s⁻¹ and the catalytic efficiency (kcat/Km) was found to be 19800 M⁻¹ s⁻¹. Also, in data set [4], the Km was determined as 1450 ± 260 µM, the Vmax is 11.6 µmol/min/mg, the turnover number (kcat) was 23.1 s⁻¹ and the catalytic efficiency (kcat/Km) is 16000 M⁻¹ s⁻¹.
